The text below walks through data of patent US10562909B2, “Fused quadracyclic compounds, compositions and uses thereof” (Tabomedex Biosciences, LLC, priority 2016, dated 2020).

The structures appear in SMILES notation.

In this test the target is MAPKAPK2 (Homo sapiens, UniProt P49137). The test can be described thus: MK2 Enzymatic Assay. It is filed as biochemical. Conditions: 0.5 nM MAPKAPK2, 3 μM ATP, 2 μM Ser/Thr4 peptide, 23° C., values given as concentration bins. How it is done:
Briefly, 5 μL of 2× (4 μM) 100% phosphorylation peptide was delivered into the control wells of a 384-well assay plate. 5 μL of 2× (1 nM) MAPKAPK2 and 2× peptide (4 μM) mixture in assay buffer was dispensed to remaining columns of assay plate using Eppendorf electronic multiple channel pipette. The assay plate was incubated for 20 minutes. 5 μL of 2× ATP (6 μM) in assay buffer was dispensed to each well and then the assay plate was lightly centrifuged. The assay plate was incubated for an additional 120 minutes.
5 μL of development reagent A was dispensed to all wells using Eppendorf electronic multiple channel pipette. After incubating the development reaction for 120 min, plates were read on a Perkin Elmer Envision instrument.
Percent phosphorylation was calculated using the following formula:
[formula] Where • C100%=Average Coumarin emission signal of the 100% Phos. Control • C0%=Average Coumarin emission signal of the 0% Phos. Control • F100%=Average Fluorescein emission signal of the 100% Phos. Control • F0%=Average Flurescein emission signal of the 0% Phos. Control

Sequence of MAPKAPK2 (P49137 whole entry, species assumed): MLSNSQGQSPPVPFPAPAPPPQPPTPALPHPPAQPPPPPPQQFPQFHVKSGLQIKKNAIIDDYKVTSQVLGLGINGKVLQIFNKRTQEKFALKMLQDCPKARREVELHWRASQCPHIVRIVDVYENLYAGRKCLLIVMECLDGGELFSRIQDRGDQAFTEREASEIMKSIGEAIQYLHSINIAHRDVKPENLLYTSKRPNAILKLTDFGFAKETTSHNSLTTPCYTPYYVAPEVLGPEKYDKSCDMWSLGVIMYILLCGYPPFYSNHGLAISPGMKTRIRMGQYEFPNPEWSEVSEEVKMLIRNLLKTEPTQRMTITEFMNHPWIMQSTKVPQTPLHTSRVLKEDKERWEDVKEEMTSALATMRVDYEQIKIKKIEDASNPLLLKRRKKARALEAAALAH

Regarding `N[C@H]1CN(c2ccc3c(c2)Cn2cc(-c4ccc(F)cc4)cc2-c2nccn2-3)C[C@@H]1CO` (relative stereo) [Compound 489, ((trans)-4-amino-1-(12-(4-fluorophenyl)-9H-benzo[e]imidazo[2,1-c]pyrrolo[1,2-a][1,4]diazepin-7-yl)pyrrolidin-3-yl)methanol], the IC50 – broadly, the midpoint of a concentration-inhibition curve – was less than 50 nM.
In the case of `CN(C)[C@@H]1CN(c2ccc3c(c2)Cn2cc(-c4ccc(F)cc4)cc2-c2nccn2-3)C[C@H]1CO` (relative stereo) [Compound 490, ((Trans)-4-(dimethylamino)-1-(12-(4-fluorophenyl)-9H-benzo[e]imidazo[2,1-c]pyrrolo[1,2-a][1,4]diazepin-7-yl)pyrrolidin-3-yl)methanol] it was less than 50 nM; in that of `CN[C@@H]1CN(c2ccc3c(c2)Cn2cc(-c4ccc(F)cc4)cc2-c2nccn2-3)C[C@H]1CO` (relative stereo) [Compound 491, ((Trans)-1-(12-(4-fluorophenyl)-9H-benzo[e]imidazo[2,1-c]pyrrolo[1,2-a][1,4]diazepin-7-yl)-4-(methylamino)pyrrolidin-3-yl)methanol], less than 50 nM; in that of `NCC[C@H]1CN(c2ccc3c(c2)Cn2cc(-c4ccc(F)cc4)cc2-c2nccn2-3)C[C@@H]1O` (relative stereo) [Compound 492, Trans-4-(2-aminoethyl)-1-(12-(4-fluorophenyl)-9H-benzo[e]imidazo[2,1-c]pyrrolo[1,2-a][1,4]diazepin-7-yl)pyrrolidin-3-ol], less than 50 nM.
In the case of `CNCC[C@H]1CN(c2ccc3c(c2)Cn2cc(-c4ccc(F)cc4)cc2-c2nccn2-3)C[C@@H]1O` (relative stereo) [Compound 493, Trans-1-(12-(4-fluorophenyl)-9H-benzo[e]imidazo[2,1-c]pyrrolo[1,2-a][1,4]diazepin-7-yl)-4-(2-(methylamino)ethyl)pyrrolidin-3-ol] it was less than 50 nM; in that of `CN(C)CC[C@H]1CN(c2ccc3c(c2)Cn2cc(-c4ccc(F)cc4)cc2-c2nccn2-3)C[C@@H]1O` (relative stereo) [Compound 494, Trans-4-(2-(dimethylamino)ethyl)-1-(12-(4-fluorophenyl)-9H-benzo[e]imidazo[2,1-c]pyrrolo[1,2-a][1,4]diazepin-7-yl)pyrrolidin-3-ol], less than 50 nM; in that of `OC[C@@H]1CNC[C@H]1Nc1ccc2c(c1)Cn1cc(-c3ccc(F)cc3)cc1-c1nccn1-2` (relative stereo) [Compound 495, (Trans-4-((12-(4-fluorophenyl)-9H-benzo[e]imidazo[2,1-c]pyrrolo[1,2-a][1,4]diazepin-7-yl)amino)pyrrolidin-3-yl)methanol], 100 to 200 nM.
In the case of `CNC[C@H]1CN(c2ccc3c(c2)Cn2cc(-c4ccc(F)cc4)cc2-c2ncnn2-3)C[C@H]1F` (relative stereo) [Compound 501, 1-(cis-4-fluoro-1-(12-(4-fluorophenyl)-9H-benzo[e]pyrrolo[1,2-a][1,2,4]triazolo[5,1-c][1,4]diazepin-7-yl)pyrrolidin-3-yl)-N-methylmethanamine] it was less than 50 nM.
As for `CN(C)C[C@H]1CN(c2ccc3c(c2)Cn2cc(-c4ccc(F)cc4)cc2-c2ncnn2-3)C[C@H]1F` (relative stereo) [Compound 502, 1-(cis-4-fluoro-1-(12-(4-fluorophenyl)-9H-benzo[e]pyrrolo[1,2-a][1,2,4]triazolo[5,1-c][1,4]diazepin-7-yl)pyrrolidin-3-yl)-N,N-dimethylmethanamine], the IC50 is less than 50 nM.
In the case of `N[C@@H]1CN(c2ccc3c(c2)Cn2cc(-c4ccc(F)cc4)cc2-c2ncnn2-3)C[C@H]1CO` (relative stereo) [Compound 503, (Trans-4-amino-1-(12-(4-fluorophenyl)-9H-benzo[e]pyrrolo[1,2-a][1,2,4]triazolo[5,1-c][1,4]diazepin-7-yl)pyrrolidin-3-yl)methanol] it was 100 to 200 nM.
For the molecule `CN(C)[C@@H]1CN(c2ccc3c(c2)Cn2cc(-c4ccc(F)cc4)cc2-c2ncnn2-3)C[C@H]1CO` (relative stereo) [Compound 504, (Trans-4-(dimethylamino)-1-(12-(4-fluorophenyl)-9H-benzo[e]pyrrolo[1,2-a][1,2,4]triazolo[5,1-c][1,4]diazepin-7-yl)pyrrolidin-3-yl)methanol], the half-maximal inhibitory concentration (IC50) was 100 to 200 nM.
For `CN[C@@H]1CN(c2ccc3c(c2)Cn2cc(-c4ccc(F)cc4)cc2-c2ncnn2-3)C[C@H]1CO` (relative stereo) [Compound 505, (Trans-1-(12-(4-fluorophenyl)-9H-benzo[e]pyrrolo[1,2-a][1,2,4]triazolo[5,1-c][1,4]diazepin-7-yl)-4-(methylamino)pyrrolidin-3-yl)methanol] the value was 50 to 100 nM; for `OC1CN(c2ccc3c(c2)Cn2cc(-c4ccc(F)cc4)cc2-c2nccn2-3)CC1CN1CCC1` (single isomer, unassigned) [Compound 468], less than 50 nM.
For `OC1CN(c2ccc3c(c2)Cn2cc(-c4ccc(F)cc4)cc2-c2nccn2-3)CC1CN1CCC1` (single isomer, unassigned) [Compound 469] the value was less than 50 nM.
`N#Cc1ccc(-c2cc3n(c2)Cc2cc(N4CCNCC4)ccc2-n2cnnc2-3)cc1` [Compound 1, 4-(7-(piperazin-1-yl)-9H-benzo[e]pyrrolo[1,2-a][1,2,4]triazolo[3,4-c][1,4]diazepin-12-yl)benzonitrile] gave an IC50 of 100 to 200 nM.
For `CNCC1CN(c2ccc3c(c2)Cn2cc(-c4ccc(C#N)cc4)cc2-c2nncn2-3)C1` [Compound 11, 4-(7-(3-((methylamino)methyl)azetidin-1-yl)-9H-benzo[e]pyrrolo[1,2-a][1,2,4]triazolo[3,4-c][1,4]diazepin-12-yl)benzonitrile] the value was 50 to 100 nM.
In the case of `CN(C)[C@H]1CN(c2ccc3c(c2)Cn2cc(-c4ccc(C#N)cc4)cc2-c2nncn2-3)C[C@@H]1O` [Compound 58, 4-(7-((3S,4S)-3-(dimethylamino)-4-hydroxypyrrolidin-1-yl)-9H-benzo[e]pyrrolo[1,2-a][1,2,4]triazolo[3,4-c][1,4]diazepin-12-yl)benzonitrile] it was 50 to 100 nM.
For `CN(C)C[C@H]1CN(c2ccc3c(c2)Cn2cc(-c4ccc(C#N)cc4)cc2-c2nncn2-3)C[C@H]1O` [Compound 81, 4-(7-((3S,4S)-3-((dimethylamino)methyl)-4-hydroxypyrrolidin-1-yl)-9H-benzo[e]pyrrolo[1,2-a][1,2,4]triazolo[3,4-c][1,4]diazepin-12-yl)benzonitrile], the half-maximal inhibitory concentration (IC50) was less than 50 nM.
Molecule `CN(C)C[C@@H]1CN(c2ccc3c(c2)Cn2cc(-c4ccc(C#N)cc4)cc2-c2nncn2-3)C[C@@H]1O` [Compound 82, 4-(7-((3R,4R)-3-((dimethylamino)methyl)-4-hydroxypyrrolidin-1-yl)-9H-benzo[e]pyrrolo[1,2-a][1,2,4]triazolo[3,4-c][1,4]diazepin-12-yl)benzonitrile] displayed an IC50 of less than 50 nM.
For `CN(C)[C@@H]1CN(c2ccc3c(c2)Cn2cc(-c4ccc(C#N)cc4)cc2-c2nncn2-3)C[C@@H]1O` [Compound 83, 4-(7-((3R,4S)-3-(dimethylamino)-4-hydroxypyrrolidin-1-yl)-9H-benzo[e]pyrrolo[1,2-a] [1,2,4]triazolo[3,4-c][1,4]diazepin-12-yl)benzonitrile] the value was 50 to 100 nM; for `C[C@H](CO)NC[C@H]1CCN(c2ccc3c(c2)Cn2cc(-c4ccc(C#N)cc4)cc2-c2nncn2-3)C1` [Compound 85, 4-(7-((R)-3-((((R)-1-hydroxypropan-2-yl)amino)methyl)pyrrolidin-1-yl)-9H-benzo[e]pyrrolo[1,2-a][1,2,4]triazolo[3,4-c][1,4]diazepin-12-yl)benzonitrile], less than 50 nM; for `C[C@@H](CO)NC[C@@H]1CCN(c2ccc3c(c2)Cn2cc(-c4ccc(C#N)cc4)cc2-c2nncn2-3)C1` [Compound 86, 4-(7-((S)-3-((((S)-1-hydroxypropan-2-yl)amino)methyl)pyrrolidin-1-yl)-9H-benzo[e]pyrrolo[1,2-a][1,2,4]triazolo[3,4-c][1,4]diazepin-12-yl)benzonitrile], less than 50 nM.
As to `C[C@@H](CO)N(C)C1CCN(c2ccc3c(c2)Cn2cc(-c4ccc(C#N)cc4)cc2-c2nncn2-3)CC1` [Compound 104, (S)-4-(7-(4-((1-hydroxypropan-2-yl)(methyl)amino)piperidin-1-yl)-9H-benzo[e]pyrrolo[1,2-a][1,2,4]triazolo[3,4-c][1,4]diazepin-12-yl)benzonitrile], the concentration for half-maximal inhibition (IC50) was 100 to 200 nM.
In the case of `CN(C)C[C@@H]1CN(c2ccc3c(c2)Cn2cc(-c4ccc(C#N)cc4)cc2-c2nncn2-3)C[C@H]1O` [Compound 108, 4-(7-((3R,4S)-3-((dimethylamino)methyl)-4-hydroxypyrrolidin-1-yl)-9H-benzo[e]pyrrolo[1,2-a][1,2,4]triazolo[3,4-c][1,4]diazepin-12-yl)benzonitrile] it was less than 50 nM; in that of `CN(C)C[C@H]1CN(c2ccc3c(c2)Cn2cc(-c4ccc(C#N)cc4)cc2-c2nncn2-3)C[C@@H]1O` [Compound 109, 4-(7-((3S,4R)-3-((dimethylamino)methyl)-4-hydroxypyrrolidin-1-yl)-9H-benzo[e]pyrrolo[1,2-a][1,2,4]triazolo[3,4-c][1,4]diazepin-12-yl)benzonitrile], less than 50 nM.
Consider `N#Cc1ccc(-c2cc3n(c2)Cc2cc(N4CC[C@@H](CN5CCC(O)CC5)C4)ccc2-n2cnnc2-3)cc1` [Compound 110, (S)-4-(7-(3-((4-hydroxypiperidin-1-yl)methyl)pyrrolidin-1-yl)-9H-benzo[e]pyrrolo[1,2-a] [1,2,4]triazolo[3,4-c][1,4]diazepin-12-yl)benzonitrile], for which the IC50 is less than 50 nM.
